Here are results for two compounds from article PMC12044245 (Emerging Infectious Diseases, 2025).

Experiment [1] concerns recombinant A/WSN/33(H1N1) with PA I38N substitution. Conditions: ref [3],[9]; cited from earlier work.
The test system of experiment [2] is recombinant A/Victoria/3/75(H3N2) with PA I38N substitution. Conditions: ref [3],[9]; cited from earlier work.
Experiment [3] addresses NA (neuraminidase) of A/Yamagata/103/2024 (Influenza A virus, UniProt C3W5S3). The experiment is classed as biochemical.
The target in experiment [4] is NA (neuraminidase) of A/Yamagata/333/2023 (Influenza A virus, UniProt C3W5S3).

For orientation: IC50 means the concentration that gives 50% inhibition. Low values mean higher potency, high ones lower potency.

As to `O=C1c2c(O)c(=O)ccn2N([C@@H]2c3ccccc3SCc3c2ccc(F)c3F)[C@@H]2COCCN12` [Baloxavir, baloxavir acid], the figures for the “fold reduction in baloxavir susceptibility conferred by PA I38N substitution” value in experiment [1] and in experiment [2] were 24 fold and 10 fold, respectively.
In the case of `CCC(CC)[C@H](NC(C)=O)[C@@H]1[C@H](O)[C@@H](C(=O)O)C[C@H]1N=C(N)N` [Peramivir, peramivir], the IC50 turned out to be 0.11 nM in experiment [3] and 0.08 nM in experiment [4].
